Data: patent publication US9440969B2, “Compounds and methods for kinase modulation, and indications therefor” (PLEXXIKON INC., priority 2009, dated 2016)

Legend:
[1] = target: B-Raf (Homo sapiens, UniProt P15056); test: B-Raf kinase activity assay (AlphaScreen, biotin-MEK1 substrate); settings: 100 μM ATP, 100 nM biotin-MEK1, 45 minutes at room temperature; read-out: Biochemical activity (IC50 μM) B-Raf
Description: (§1) Assays for biochemical and cell based activity are known in the art, for example, as described in PCT publication WO 2007/002433, the disclosure of which is hereby incorporated by reference as it relates to such assays. For example, the biochemical activity IC50 values are determined with respect to inhibition of B-Raf kinase activity, c-Raf-1 kinase activity, or B-Raf V600E kinase activity, where inhibition of phosphorylation of a peptide substrate is measured as a function of compound concentration. Compounds to be tested are diluted in dimethyl sulfoxide to a concentration of 0.1 mM. These are serially diluted 15 μL into 30 μL of dimethyl sulfoxide seven times in 96 well plates for a total of 8 dilution points, and for each dilution point 1 μL is added to a well of an assay plate. Plates are prepared such that each well in a 384 well plate contains 1 μL of compound in 10 μL, volume with 0.1 ng Raf enzyme (i.e. any of B-Raf, c-Raf-1 or B-Raf V600E, Upstate Biotechnology or prepared by methods known to one of skill in the art), 50 mM HEPES, pH 7.0, 50 mM NaCl, 2 mM MgCl2, 1 mM MnCl2, 0.01% Tween-20, 1 mM DTT, and 100 nM biotin-MEK1 as substrate. The reaction is started with addition of 10 μL of 200 μM ATP (i.e. final 100 μM ATP). After incubation of the kinase reaction for 45 minutes at room temperature, 5 μL/well of Stop Solution is added (25 mM Hepes pH 7.5, 100 mM EDTA, 0.01% BSA with donor beads (Streptavidin coated beads, Perkin Elmer), acceptor beads (Protein A coated, Perkin Elmer), and anti phosphor MEK1/2 antibody (CellSignal), each at final concentration 10 μg/mL). The plates are incubated for 3 hours at room temperature and read on Envision reader (Perkin Elmer). Phosphorylation of Mek1 results in binding of the anti-phosphor-MEK1/2 antibody and association of the donor and acceptor beads such that signal correlates with kinase activity. The signal vs. compound concentration is used to determine the IC50.

[2] = target: B-Raf V600E (Homo sapiens, UniProt P15056, V600E); test: B-Raf V600E kinase activity assay (AlphaScreen, biotin-MEK1 substrate); settings: 100 μM ATP, 100 nM biotin-MEK1, 45 minutes at room temperature, read-out: Biochemical activity (IC50 μM) V600E
Description: as §1

[3] = target: c-Raf-1 (Homo sapiens, UniProt P04049); test: c-Raf-1 kinase activity assay (AlphaScreen, biotin-MEK1 substrate); settings: 100 μM ATP, 100 nM biotin-MEK1, 45 minutes at room temperature; read-out: Biochemical activity (IC50 μM) c-Raf-1
Description: as §1

Measured: IC50

Chain of c-Raf-1 (P04049 whole entry Y340D/Y341D, form open): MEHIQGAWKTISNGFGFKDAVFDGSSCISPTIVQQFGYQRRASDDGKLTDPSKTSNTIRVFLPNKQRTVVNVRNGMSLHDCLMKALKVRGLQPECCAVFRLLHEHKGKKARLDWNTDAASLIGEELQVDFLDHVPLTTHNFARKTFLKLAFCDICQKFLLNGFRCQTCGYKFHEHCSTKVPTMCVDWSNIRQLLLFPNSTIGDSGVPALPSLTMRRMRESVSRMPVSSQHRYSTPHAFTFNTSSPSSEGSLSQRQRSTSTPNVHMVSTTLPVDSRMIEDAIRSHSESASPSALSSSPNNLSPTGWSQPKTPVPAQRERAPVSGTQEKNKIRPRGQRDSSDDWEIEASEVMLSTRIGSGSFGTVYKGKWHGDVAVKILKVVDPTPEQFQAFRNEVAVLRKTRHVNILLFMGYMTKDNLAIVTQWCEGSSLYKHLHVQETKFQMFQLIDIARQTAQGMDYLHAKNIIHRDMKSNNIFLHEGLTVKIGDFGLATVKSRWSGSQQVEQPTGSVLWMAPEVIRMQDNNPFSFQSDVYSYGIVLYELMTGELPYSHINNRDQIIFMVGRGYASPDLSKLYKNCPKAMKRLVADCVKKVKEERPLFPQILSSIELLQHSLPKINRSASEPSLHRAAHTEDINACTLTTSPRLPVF
Chain of B-Raf (P15056 whole entry): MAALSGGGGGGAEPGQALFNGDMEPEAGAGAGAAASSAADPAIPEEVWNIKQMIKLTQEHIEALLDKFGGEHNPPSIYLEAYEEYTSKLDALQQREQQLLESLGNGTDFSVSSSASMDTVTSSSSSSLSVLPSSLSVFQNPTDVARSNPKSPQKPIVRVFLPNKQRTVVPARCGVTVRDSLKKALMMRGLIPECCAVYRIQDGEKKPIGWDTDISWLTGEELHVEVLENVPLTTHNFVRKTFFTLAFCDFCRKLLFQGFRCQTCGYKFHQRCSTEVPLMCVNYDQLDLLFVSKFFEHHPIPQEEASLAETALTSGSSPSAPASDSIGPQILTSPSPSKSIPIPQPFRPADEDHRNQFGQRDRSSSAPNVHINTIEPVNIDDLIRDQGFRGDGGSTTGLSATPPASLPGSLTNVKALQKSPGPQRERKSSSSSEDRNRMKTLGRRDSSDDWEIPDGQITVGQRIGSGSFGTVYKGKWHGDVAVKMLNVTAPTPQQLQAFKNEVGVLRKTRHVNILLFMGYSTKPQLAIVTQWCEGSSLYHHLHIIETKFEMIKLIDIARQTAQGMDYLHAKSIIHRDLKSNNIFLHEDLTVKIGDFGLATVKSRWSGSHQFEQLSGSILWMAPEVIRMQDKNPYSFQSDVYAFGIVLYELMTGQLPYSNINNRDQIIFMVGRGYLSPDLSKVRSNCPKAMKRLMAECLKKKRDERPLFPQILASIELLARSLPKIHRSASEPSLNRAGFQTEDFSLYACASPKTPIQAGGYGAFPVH
Chain of B-Raf V600E (P15056 whole entry V600E): as the sequence (P15056 whole entry) above, with V600E counted along it

CCCS(=O)(=O)Nc1ccc(F)c(C(=O)c2c[nH]c3ncc(-c4ccc5ncncc5c4)cc23)c1F [P-0026, Propane-1-sulfonic acid [2,4-difluoro-3-(5-quinazolin-6-yl-1H-pyrrolo[2,3-b]pyridine-3-carbonyl)-phenyl]-amide]
< 0.1 µM: all assays above

CCCS(=O)(=O)Nc1ccc(F)c(C(=O)c2c[nH]c3ncc(-c4c(C)nn(-c5nnn[nH]5)c4C)cc23)c1F [P-1006, Propane-1-sulfonic acid (3-{5-[3,5-dimethyl-1-(1H-tetrazol-5-yl)-1H-pyrazol-4-yl]-1H-pyrrolo[2,3-b]pyridine-3-carbonyl}-2,4-difluoro-phenyl)-amide]
< 0.1 µM: all assays above

CCCS(=O)(=O)Nc1ccc(F)c(C(=O)c2c[nH]c3ncc(-c4c(C)nn(S(=O)(=O)c5cn(C)nc5C)c4C)cc23)c1F [P-1007, Propane-1-sulfonic acid (3-{5-[1-(1,3-dimethyl-1H-pyrazole-4-sulfonyl)-3,5-dimethyl-1H-pyrazol-4-yl]-1H-pyrrolo[2,3-b]pyridine-3-carbonyl}-2,4-difluoro-phenyl)-amide]
< 0.1 µM: all assays above

Cn1cc(-c2cnc3[nH]cc(C(=O)c4c(F)ccc(NS(=O)(=O)c5cc(F)ccc5F)c4F)c3c2)cn1 [P-1009, N-{2,4-Difluoro-3-[5-(1-methyl-1H-pyrazol-4-yl)-1H-pyrrolo[2,3-b]pyridine-3-carbonyl]-phenyl}-2,5-difluoro-benzenesulfonamide]
< 0.1 µM: all assays above

CCCS(=O)(=O)Nc1ccc(F)c(C(=O)c2c[nH]c3ncc(-c4cnc(-n5cccn5)s4)cc23)c1F [P-1109, Propane-1-sulfonic acid {2,4-difluoro-3-[5-(2-pyrazol-1-yl-thiazol-5-yl)-1H-pyrrolo[2,3-b]pyridine-3-carbonyl]-phenyl}-amide]
< 0.1 µM: all assays above

O=C(c1c(F)ccc(NS(=O)(=O)c2cc(F)ccc2F)c1F)c1c[nH]c2ncc(-c3cnco3)cc12 [P-1300, N-[2,4-Difluoro-3-(5-oxazol-5-yl-1H-pyrrolo[2,3-b]pyridine-3-carbonyl)-phenyl]-2,5-difluoro-benzenesulfonamide]
< 0.1 µM: all assays above

O=C(c1c(F)ccc(NS(=O)(=O)c2cc(F)ccc2F)c1F)c1c[nH]c2ncc(-c3cccnc3)cc12 [P-1402, N-[2,4-Difluoro-3-(5-pyridin-3-yl-1H-pyrrolo[2,3-b]pyridine-3-carbonyl)-phenyl]-2,5-difluoro-benzenesulfonamide]
< 0.1 µM: all assays above

O=C(c1c(F)ccc(NS(=O)(=O)c2cc(F)ccc2F)c1F)c1c[nH]c2ncc(-c3ccncc3)cc12 [P-1403, N-[2,4-Difluoro-3-(5-pyridin-4-yl-1H-pyrrolo[2,3-b]pyridine-3-carbonyl)-phenyl]-2,5-difluoro-benzenesulfonamide]
< 0.1 µM: all assays above

O=C(c1c(F)ccc(NS(=O)(=O)c2cc(F)ccc2F)c1F)c1c[nH]c2ncc(-c3ccncc3F)cc12 [P-1405, N-{2,4-Difluoro-3-[5-(3-fluoro-pyridin-4-yl)-1H-pyrrolo[2,3-b]pyridine-3-carbonyl]-phenyl}-2,5-difluoro-benzenesulfonamide]
< 0.1 µM: all assays above

CS(=O)(=O)c1cncc(-c2cnc3[nH]cc(C(=O)c4c(F)ccc(NS(=O)(=O)c5cc(F)ccc5F)c4F)c3c2)c1 [P-1407, N-{2,4-Difluoro-3-[5-(5-methanesulfonyl-pyridin-3-yl)-1H-pyrrolo[2,3-b]pyridine-3-carbonyl]-phenyl}-2,5-difluoro-benzenesulfonamide]
< 0.1 µM: all assays above
